Results reported in ChEMBL document CHEMBL1811878, “Heteroatom-substituted analogues of orphan nuclear receptor small heterodimer partner ligand and apoptosis inducer (E)-4-[3-(1-Adamantyl)-4-hydroxyphenyl]-3-chlorocinnamic acid” (J Med Chem, 2011).
Converted amounts (≈) assume the structure as drawn. The source made the active and inactive calls. The calls are words filed in the database; no cut-off is given here.

Experiments:
[1] = biological target: T1, Retinoic acid receptor gamma (Homo sapiens) (UniProt P13631); assay: Transcriptional activation of human RARgamma at 1 uM by (TREpal)2-tk-CAT reporter gene assay
T1 sequence (whole entry): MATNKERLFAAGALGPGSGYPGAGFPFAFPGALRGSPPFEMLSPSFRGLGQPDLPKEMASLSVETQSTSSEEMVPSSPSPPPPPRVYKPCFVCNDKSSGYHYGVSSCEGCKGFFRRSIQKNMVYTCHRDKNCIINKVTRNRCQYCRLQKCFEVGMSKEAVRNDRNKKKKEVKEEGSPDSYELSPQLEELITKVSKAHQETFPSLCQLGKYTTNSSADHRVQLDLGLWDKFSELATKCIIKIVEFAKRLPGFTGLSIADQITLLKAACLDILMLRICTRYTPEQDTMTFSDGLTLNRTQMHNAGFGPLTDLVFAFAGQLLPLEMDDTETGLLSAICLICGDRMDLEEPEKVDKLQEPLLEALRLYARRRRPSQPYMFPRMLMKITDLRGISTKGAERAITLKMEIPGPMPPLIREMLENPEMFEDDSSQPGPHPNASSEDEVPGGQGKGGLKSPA

[2] = test system: OVCAR-3; assay: Antiproliferative activity against human OVCAR3 cell; type: functional, cell-based
[3] = biological target: T2, Retinoic acid receptor beta (Homo sapiens) (UniProt P10826); assay: Transcriptional activation of human RARbeta at 1 uM by (TREpal)2-tk-CAT reporter gene assay
T2 sequence (whole entry): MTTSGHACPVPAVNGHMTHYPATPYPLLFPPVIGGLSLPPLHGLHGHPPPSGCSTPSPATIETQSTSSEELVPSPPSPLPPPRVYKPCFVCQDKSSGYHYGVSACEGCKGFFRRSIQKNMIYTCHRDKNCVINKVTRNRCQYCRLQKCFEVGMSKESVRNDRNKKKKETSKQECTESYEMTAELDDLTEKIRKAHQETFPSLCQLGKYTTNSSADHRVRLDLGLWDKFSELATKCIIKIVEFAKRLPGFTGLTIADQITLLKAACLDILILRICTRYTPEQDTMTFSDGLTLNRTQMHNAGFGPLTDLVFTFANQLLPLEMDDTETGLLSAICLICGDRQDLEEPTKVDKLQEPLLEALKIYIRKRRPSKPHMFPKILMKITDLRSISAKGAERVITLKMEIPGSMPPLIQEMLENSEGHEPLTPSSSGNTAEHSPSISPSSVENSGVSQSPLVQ

[4] = Induction of apoptosis in retinoid-resistant p53 null human HL60R cells assessed as DNA fragmentation at 0.1 uM after 24 hrs by acridine orange staining method; type: functional
[5] = Induction of apoptosis in retinoid-resistant p53 null human HL60R cells assessed as DNA fragmentation at 1 uM after 24 hrs by acridine orange staining method; type: functional
[6] = biological target: T2, Retinoic acid receptor beta (Homo sapiens); assay: Transcriptional activation of human RARbeta at 0.1 uM by luciferase reporter gene assay relative to control
[7] = biological target: T1, Retinoic acid receptor gamma (Homo sapiens); assay: Transcriptional activation of human RARgamma at 0.1 uM by luciferase reporter gene assay relative to control
[8] = biological target: T3, Retinoic acid receptor alpha (Homo sapiens) (UniProt P10276); assay: Transcriptional activation of human RARalpha at 1 uM by (TREpal)2-tk-CAT reporter gene assay
T3 sequence (whole entry): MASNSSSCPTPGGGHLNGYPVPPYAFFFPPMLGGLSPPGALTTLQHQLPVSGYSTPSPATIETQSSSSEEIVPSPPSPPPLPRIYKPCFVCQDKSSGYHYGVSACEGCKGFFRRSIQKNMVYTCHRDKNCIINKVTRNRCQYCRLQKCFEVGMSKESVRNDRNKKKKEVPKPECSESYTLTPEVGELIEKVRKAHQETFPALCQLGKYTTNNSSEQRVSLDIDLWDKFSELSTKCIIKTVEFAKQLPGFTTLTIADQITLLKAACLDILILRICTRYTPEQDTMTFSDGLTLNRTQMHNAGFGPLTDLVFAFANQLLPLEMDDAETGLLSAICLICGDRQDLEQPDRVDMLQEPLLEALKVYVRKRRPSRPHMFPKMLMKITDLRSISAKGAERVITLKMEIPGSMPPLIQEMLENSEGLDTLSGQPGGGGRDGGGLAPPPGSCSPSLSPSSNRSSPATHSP

[9] = biological target: T3, Retinoic acid receptor alpha (Homo sapiens); assay: Transcriptional activation of human RARalpha at 0.1 uM by luciferase reporter gene assay relative to control
[10] = test system: KG-1; assay: Growth inhibition in human KG1 cells expressing p53 gene at 5 uM after 48 hrs by MTT assay; type: functional; details: KG-1, 48 h, read-out: GI
[11] = test system: A549; assay: Induction of apoptosis in human A549 cells assessed as decrease in ATP level after 72 hrs by luminescence assay; type: functional, cell-based
[12] = test system: PC-3; assay: Induction of apoptosis in human PC3 cells assessed as decrease in ATP level after 72 hrs by luminescence assay; type: functional, cell-based
[13] = test system: KG-1; assay: Growth inhibition in human KG1 cells expressing p53 gene at 1 uM after 48 hrs by MTT assay; type: functional; details: KG-1, 48 h, read-out: GI
[14] = test system: A549; assay: Induction of apoptosis in human A549 cells assessed as decrease in ATP level at 10 uM after 72 hrs by luminescence assay; type: functional, cell-based
[15] = test system: HT-29; assay: Induction of apoptosis in human HT-29 cells assessed as decrease in ATP level at 10 uM after 72 hrs by luminescence assay; type: functional
[16] = test system: PC-3; assay: Induction of apoptosis in human PC3 cells assessed as decrease in ATP level at 10 uM after 72 hrs by luminescence assay; type: functional, cell-based
[17] = test system: KG-1; assay: Induction of apoptosis in human KG1 cells assessed as DNA fragmentation at 5 uM after 48 hrs by acridine orange staining method; type: functional
[18] = test system: KG-1; assay: Induction of apoptosis in human KG1 cells expressing p53 gene assessed as DNA fragmentation at 1 uM after 48 hrs by acridine orange staining method; type: functional
[19] = test system: HT-29; assay: Induction of apoptosis in human HT-29 cells assessed as decrease in ATP level after 72 hrs by luminescence assay; type: functional, cell-based
[20] = test system: HT-29; assay: Induction of apoptosis in human HT-29 cells assessed as decrease in ATP level at 5 uM after 72 hrs by luminescence assay; type: functional; set-up: scale not given: the % may be the effect or the level left
[21] = test system: PC-3; assay: Induction of apoptosis in human PC3 cells assessed as decrease in ATP level at 5 uM after 72 hrs by luminescence assay; type: functional; set-up: scale not given: the % may be the effect or the level left
[22] = test system: A549; assay: Induction of apoptosis in human A549 cells assessed as decrease in ATP level at 5 uM after 72 hrs by luminescence assay; type: functional; set-up: scale not given: the % may be the effect or the level left
[23] = test system: Mus musculus; assay: Toxicity in ICR-SCIDS mouse assessed as decrease in body weight at 20 mg/kg, iv qd administered at a 25% increment in dose each day for 7 days measured on day 7 relative to body weight on day 1; type: organism-based; set-up: dose 20 mg/kg, route intravenous; scale not given: the % may be the effect or the level left; details: in vivo, 168 h
[24] = test system: HT-29; assay: Induction of apoptosis in human HT-29 cells assessed as decrease in ATP level at 10 uM after 72 hrs by luminescence assay relative to control; type: functional; set-up: scale not given: the % may be the effect or the level left
[25] = test system: MDA-MB-231; assay: Induction of apoptosis in retinoid-resistant human MDA-MB-231 cells expressing p53 and Erbeta gene assessed as DNA fragmentation at 0.1 to 1 uM after 48 hrs by acridine orange staining method; type: functional, cell-based
[26] = test system: MDA-MB-231; assay: Growth inhibition of retinoid-resistant human MDA-MB-231 cells expressing p53 and ERbeta gene at 1 uM after 48 hrs by MTT assay; type: functional; details: MDA-MB-231, 48 h, read-out: GI
[27] = test system: MDA-MB-231; assay: Induction of apoptosis in retinoid-resistant human MDA-MB-231 cells expressing p53 and ERbeta gene assessed as DNA fragmentation at 1 uM after 48 hrs by acridine orange staining method; type: functional
[28] = Aqueous solubility of the compound in PBS at pH 7.2 by UV spectrophotometric analysis; type: physicochemical; details: buffer
[29] = test system: MDA-MB-231; assay: Growth inhibition of retinoid-resistant human MDA-MB-231 cells expressing p53 and Erbeta gene at 0.1 to 1 uM after 48 hrs by MTT assay; type: functional, cell-based
[30] = Aqueous solubility of the compound in water at pH 5 by UV spectrophotometric analysis; type: physicochemical
[31] = test system: MDA-MB-231; assay: Growth inhibition of retinoid-resistant human MDA-MB-231 cells expressing p53 and ERbeta gene at 1 uM after 24 hrs by MTT assay; type: functional; details: MDA-MB-231, 24 h, read-out: GI
[32] = test system: MDA-MB-231; assay: Induction of apoptosis in retinoid-resistant human MDA-MB-231 cells expressing p53 and ERbeta gene assessed as DNA fragmentation at 1 uM after 24 hrs by acridine orange staining method; type: functional
[33] = test system: Mus musculus; assay: Toxicity in ICR-SCIDS mouse assessed as decrease in body weight at 20 mg/kg, iv qd administered at a 25% increment in dose each day for 7 days measured on day 8 relative to control; type: organism-based; set-up: dose 20 mg/kg, route intravenous; scale not given: the % may be the effect or the level left; details: in vivo, 168 h
[34] = Induction of apoptosis in mouse MMTV-Wnt-1 cells assessed as cell viability after 72 hrs by DAPI staining based cell counting; type: functional
[35] = test system: Mus musculus; assay: Toxicity in ICR-SCIDS mouse assessed as increase in body weight at 20 mg/kg, iv qd administered at a 25% increment in dose each day for 7 days measured on day 4; type: organism-based; set-up: dose 20 mg/kg, route intravenous; details: in vivo, 168 h
[36] = test system: Mus musculus; assay: Toxicity in ICR-SCIDS mouse assessed as increase in body weight at 20 mg/kg, iv qd administered at a 25% increment in dose each day for 7 days measured on day 1; type: organism-based; set-up: dose 20 mg/kg, route intravenous; details: in vivo, 168 h

O=C(O)c1ccc2cc(-c3ccc(O)c(C45CC6CC(CC(C6)C4)C5)c3)ccc2c1 [O-DEMETHYLATED ADAPALENE]
Activity [1]: 88%
IC50 [2]: 130 nM
Activity [3]: 78%
Activity [4]: 73%
Activity [5]: 98%
fold change (FC) [6]: 20
fold change (FC) [7]: 50
Activity [8]: 21%
fold change (FC) [9]: 10

O=C(O)/C=C/c1cnc(-c2ccc(O)c(C34CC5CC(CC(C5)C3)C4)c2)c(Cl)c1
inhibition of growth at 5 µM [10]: 47%
Activity [11]: Dose-dependent effect
Activity [12]: Dose-dependent effect
inhibition of growth at 1 µM [13]: 41%
Activity [14]: Active
Activity [15]: inactive
Activity [16]: Active
Activity [17]: 65%
Activity [18]: 56%
Activity [19]: Dose-dependent effect

O=C(O)c1ccc2c(Cl)c(-c3ccc(O)c(C45CC6CC(CC(C6)C4)C5)c3)ccc2c1
Activity [4]: 62%
Activity [5]: 94%

O=C(O)/C=C/c1ccc(-c2ccc(O)c(C34CC5CC(CC(C5)C3)C4)c2)nn1
inhibition of growth at 5 µM [10]: 80%
Activity [20]: <=5%
Activity [11]: Dose-dependent effect
Activity [12]: Dose-dependent effect
inhibition of growth at 1 µM [13]: 70%
Activity [21]: >60%
Activity [14]: inactive
Activity [16]: Active
Activity [22]: <=5%
Activity [17]: 59%
Activity [18]: 48%
Activity [19]: Dose-dependent effect

O=C(O)/C=C/c1ccc(-c2ccc(O)c(C34CC5CC(CC(C5)C3)C4)c2)c(Cl)c1
Activity [23]: 90.4%
Activity [24]: <60%
inhibition of growth at 5 µM [10]: 67%
Activity [25]: inactive
inhibition of growth at 1 µM [26]: 43%
Activity [27]: 7%
solubility [28]: soluble
Activity [20]: 30%
growth inhibition (GI) [29]: inactive
Activity [11]: Dose-dependent effect
Activity [12]: Dose-dependent effect
solubility [30]: 4.5 µM (≈ 1.84 µg/mL)
inhibition of growth at 1 µM [31]: 8%
inhibition of growth at 1 µM [13]: 44%
Activity [32]: 3%
Activity [21]: 30%
Activity [14]: Active
Activity [15]: >=40%
Activity [4]: 51%
Activity [16]: Active
Activity [33]: 62.7%
Activity [22]: 30%
Activity [17]: 55%
Activity [5]: 94%
IC50 [34]: 281 nM
Activity [35]: 9.3%
Activity [18]: 30%
Activity [19]: Dose-dependent effect
Activity [36]: 9.3%

O=C(O)/C=C/c1ccc(-c2ccc(O)c(C34CC5CC(CC(C5)C3)C4)c2)cn1
inhibition of growth at 5 µM [10]: 58%
Activity [20]: 10%
Activity [11]: Dose-dependent effect
Activity [12]: Dose-dependent effect
inhibition of growth at 1 µM [13]: 48%
Activity [21]: >60%
Activity [14]: Active
Activity [16]: Active
Activity [22]: 10%
Activity [17]: 52%
Activity [18]: 36%
Activity [19]: Dose-dependent effect

O=C(O)CNc1ccc(-c2ccc(O)c(C34CC5CC(CC(C5)C3)C4)c2)c(Cl)c1
inhibition of growth at 5 µM [10]: 45%
Activity [11]: Dose-dependent effect
Activity [12]: Dose-dependent effect
inhibition of growth at 1 µM [13]: 30%
Activity [14]: inactive
Activity [15]: >=40%
Activity [17]: 35%
Activity [18]: 18%
Activity [19]: Dose-dependent effect

O=C(O)/C=C/c1ccc(-c2ccc(O)c(C34CC5CC(CC(C5)C3)C4)c2)cc1 [ADAROTENE]
Activity [1]: 103%
Activity [3]: 85%
Activity [4]: 90%
Activity [5]: 98%
fold change (FC) [6]: 6
fold change (FC) [7]: 25
Activity [8]: 8%
fold change (FC) [9]: 6

O=C(O)/C=C/c1cnc(-c2ccc(O)c(C34CC5CC(CC(C5)C3)C4)c2)cn1
inhibition of growth at 5 µM [10]: 61%
Activity [11]: Dose-dependent effect
Activity [12]: Dose-dependent effect
inhibition of growth at 1 µM [13]: 44%
Activity [15]: inactive
Activity [16]: Active
Activity [17]: 50%
IC50 [34]: 316 nM
Activity [18]: 39%
Activity [19]: Dose-dependent effect
